Assay results: PubChem BioAssay (NCI)
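GI50 is the concentration that inhibits growth by half. The concentration for full growth arrest is given as TGI.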

Tests used:
Experiment in all cases: inhibition of tumour cell growth, NCI panel, 384-well format
[1] = system: HCC-2998 colon
[2] = system: HOP-92 NSCLC
[3] = system: MDA-MB-468 breast
[4] = system: COLO 205 colon
[5] = system: BT-549 breast
[6] = system: M14 melanoma
[7] = system: HL-60(TB) leukemia
[8] = system: MOLT-4 leukemia
[9] = system: SF-295 CNS
[10] = system: MDA-MB-435 melanoma
[11] = system: NCI-H522 lung
[12] = system: SNB-75 CNS
[13] = system: SK-MEL-5 melanoma
[14] = system: 786-0 renal
[15] = system: MCF7 breast
[16] = system: SF-268 CNS
[17] = system: RXF 393 renal
[18] = system: NCI-H460 NSCLC
[19] = system: LOX IMVI melanoma
[20] = system: T-47D breast
[21] = system: NCI-H226 lung
[22] = system: K-562 leukemia
[23] = system: UACC-62 melanoma
[24] = system: SK-MEL-28 melanoma
[25] = system: SR leukemia
[26] = system: HS 578T breast
[27] = system: KM12 colon
[28] = system: UO-31 renal
[29] = system: NCI-H23 lung
[30] = system: HCT-15 colon
[31] = system: SF-539 CNS
[32] = system: SK-OV-3 ovarian
[33] = system: PC-3 prostate
[34] = system: MALME-3M melanoma
[35] = system: TK-10 renal
[36] = system: SW-620 colon
[37] = system: OVCAR-4 ovarian
[38] = system: DU-145 prostate
[39] = system: UACC-257 melanoma
[40] = system: CCRF-CEM leukemia
[41] = system: SNB-19 CNS
[42] = system: HT29 colon
[43] = system: U251 glioblastoma
[44] = system: NCI/ADR-RES ovarian
[45] = system: IGROV1 ovarian
[46] = system: HOP-62 NSCLC
[47] = system: NCI-H322M lung
[48] = system: OVCAR-3 ovarian
[49] = system: OVCAR-5 ovarian
[50] = system: CAKI-1 renal
[51] = system: OVCAR-8 ovarian
[52] = system: RPMI-8226 leukemia
[53] = system: A549 NSCLC
[54] = system: A498 renal
[55] = system: SN12C renal
[56] = system: EKVX NSCLC
[57] = system: ACHN renal
[58] = system: MDA-MB-231 breast

Structure (SMILES): CN(C)c1cc2c(cc1Sc1nc3c(N)nccc3n1CCNCC(C)(C)C)OCO2
- GI50 [1]: 183 nM
- TGI [1]: 419 nM
- GI50 [2]: 183 nM
- TGI [2]: 503 nM
- GI50 [3]: 307 nM
- TGI [3]: 507 nM
- GI50 [4]: 66.4 nM
- TGI [4]: 325 nM
- GI50 [5]: 118 nM
- TGI [5]: 664 nM
- GI50 [6]: 303 nM
- TGI [6]: 3440 nM
- GI50 [7]: 111 nM
- TGI [7]: 241 nM
- GI50 [8]: 58.9 nM
- TGI [8]: 192 nM
- GI50 [9]: 218 nM
- TGI [9]: 499 nM
- GI50 [10]: 447 nM
- TGI [10]: 15300 nM
- GI50 [11]: 191 nM
- TGI [11]: 377 nM
- GI50 [12]: 273 nM
- TGI [12]: 553 nM
- GI50 [13]: 79.8 nM
- TGI [13]: 1450 nM
- GI50 [14]: 280 nM
- TGI [14]: 963 nM
- GI50 [15]: 89.5 nM
- TGI [15]: 1680 nM
- GI50 [16]: 221 nM
- TGI [16]: 11100 nM
- GI50 [17]: 127 nM
- TGI [17]: 348 nM
- GI50 [18]: 138 nM
- TGI [18]: 297 nM
- GI50 [19]: 177 nM
- TGI [19]: 330 nM
- GI50 [20]: 350 nM
- TGI [20]: 10500 nM
- GI50 [21]: 387 nM
- TGI [21]: 13200 nM
- GI50 [22]: 199 nM
- TGI [22]: 737 nM
- GI50 [23]: 226 nM
- TGI [23]: 590 nM
- GI50 [24]: 327 nM
- TGI [24]: 11900 nM
- GI50 [25]: 62.8 nM
- TGI [25]: 197 nM
- GI50 [26]: 261 nM
- TGI [26]: 769 nM
- GI50 [27]: 171 nM
- TGI [27]: 6350 nM
- GI50 [28]: 683 nM
- TGI [28]: 19500 nM
- GI50 [29]: 134 nM
- TGI [29]: 467 nM
- GI50 [30]: 144 nM
- TGI [30]: 8640 nM
- GI50 [31]: 236 nM
- TGI [31]: 541 nM
- GI50 [32]: 231 nM
- TGI [32]: 10800 nM
- GI50 [33]: 229 nM
- TGI [33]: 517 nM
- GI50 [34]: 241 nM
- TGI [34]: 548 nM
- GI50 [35]: 400 nM
- TGI [35]: 5550 nM
- GI50 [36]: 215 nM
- TGI [36]: 715 nM
- GI50 [37]: 324 nM
- TGI [37]: 883 nM
- GI50 [38]: 228 nM
- TGI [38]: 1130 nM
- GI50 [39]: 507 nM
- TGI [39]: 4140 nM
- GI50 [40]: 118 nM
- TGI [40]: 312 nM
- GI50 [41]: 423 nM
- TGI [41]: 6840 nM
- GI50 [42]: 188 nM
- TGI [42]: 2260 nM
- GI50 [43]: 352 nM
- TGI [43]: 1420 nM
- GI50 [44]: 280 nM
- TGI [44]: 625 nM
- GI50 [45]: 270 nM
- TGI [45]: 742 nM
- GI50 [46]: 292 nM
- TGI [46]: 934 nM
- GI50 [47]: 299 nM
- TGI [47]: 14800 nM
- GI50 [48]: 234 nM
- TGI [48]: 631 nM
- GI50 [49]: 390 nM
- TGI [49]: 9750 nM
- GI50 [50]: 449 nM
- TGI [50]: 15800 nM
- GI50 [51]: 174 nM
- TGI [51]: 349 nM
- GI50 [52]: 135 nM
- TGI [52]: 291 nM
- GI50 [53]: 131 nM
- TGI [53]: 12100 nM
- GI50 [54]: 82.9 nM
- TGI [54]: 11900 nM
- GI50 [55]: 221 nM
- TGI [55]: 506 nM
- GI50 [56]: 344 nM
- TGI [56]: 11800 nM
- GI50 [57]: 376 nM
- TGI [57]: 13200 nM
- GI50 [58]: 231 nM
- TGI [58]: 608 nM
